Where a name gives a salt, the structure may show the parent alone. Read-outs that look alike come from different tables or passages of the source. Non-standard residues stand in square brackets, D forms with d. Residues, ends and D or L forms follow the SMILES beside them. *: point of attachment. Phg = N[C@H](C(=O)O)c1ccccc1; Cbz = O=C(OCc1ccccc1)*; OtBu = CC(C)(C)O*
What was measured:
caspase-9 = caspase-9 (Homo sapiens (Human), UniProt P55211); assay: Caspase-9 Inhibitor Drug Screening Kit, fluorometric enzymatic assay
Procedure: (§1) The level of inhibition of caspase-1, -3, -5, -7, -9 activity was determined by comparison of the relative fluorescence intensity in samples with or without the compound.

caspase-5 = caspase-5 (Homo sapiens (Human), UniProt P51878); assay: Caspase-5 Inhibitor Drug Screening Kit, fluorometric enzymatic assay; conditions: read-out: Caspase enzymatic activity, IC50 (uM) Caspase 5; 30-minute incubation at 37° C., AFC liberation
Procedure: as §1

Hela cells = assay: Inhibition of proteolytic cleavage of PARP in staurosporine-treated live Hela cells; assay type: cell-based
Procedure: To test the efficacy of caspase-3 inhibitors at the cellular level, the ability of selected compounds to inhibit the proteolytic cleavage of PARP (poly ADP-ribose polymerase) was evaluated in live Hela cells.
Briefly, in this assay Hela cells are seeded in 96 well plates and incubated for 4 hours with staurosporine, a well characterized inducer of apoptosis, alone or together with different concentrations of compound (50, 25, 10 and 3 uM). After formaldehyde-based fixation, the cells are stained with a fluorescein-labeled anti-cleaved PARP antibody (Cell signaling, Cat#: 9547) and counterstained with Hoechst33342 (Invitrogen, Cat#: H3570) to mark all nuclei. Fluorescence images are taken on a Cellomics™ microscope system (Thermo Scientific, Pittsburgh, USA) with the Hoechst stain in the blue channel and the cleaved PARP antibody stain in the green channel. The percentage of cleaved PARP positive cells is determined by calculating the ratio between nuclei with a cleaved PARP antibody staining above a certain threshold and all (Hoechst positive) nuclei. The efficacy of caspase-3 inhibition is determined by calculating the ratio between cleaved PARP positive cells after staurosporine incubation together with compounds and staurosporine incubation without compounds.

caspase-3 = caspase-3 (Homo sapiens (Human), UniProt P42574); assay: Caspase-3 Inhibitor Drug Screening Kit, fluorometric enzymatic assay; assay type: biochemical; conditions: for IC50: 30-minute incubation at 37° C., AFC liberation
Procedure: as §1

caspase-1 = caspase-1 (Homo sapiens (Human), UniProt P29466); assay: Caspase-1 Inhibitor Drug Screening Kit, fluorometric enzymatic assay; conditions: read-out: Caspase enzymatic activity, IC50 (uM) Caspase 1; 30-minute incubation at 37° C., AFC liberation
Procedure: as §1

caspase-7 = caspase-7 (Homo sapiens (Human), UniProt P55210); assay: Caspase-7 Inhibitor Drug Screening Kit, fluorometric enzymatic assay
Procedure: as §1

[1] = read-out: Caspase enzymatic activity, IC50 (uM) Caspase 9, 30-minute incubation at 37° C., AFC liberation
[2] = Homo sapiens, 50 uM, relative to DEVDFMK, read-out: % of inhibition with compound relative to DEVDFMK
[3] = Homo sapiens, read-out: % inhibition of PARP cleavage at 50 uM compound, staurosporine 4 hours, 50 uM compound

Chain of caspase-3 (P42574 29-175): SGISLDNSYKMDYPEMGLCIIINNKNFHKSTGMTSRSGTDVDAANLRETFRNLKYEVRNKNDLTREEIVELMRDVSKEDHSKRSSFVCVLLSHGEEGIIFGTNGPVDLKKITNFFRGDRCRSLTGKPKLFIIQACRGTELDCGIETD
Chain of caspase-3 (P42574 176-277): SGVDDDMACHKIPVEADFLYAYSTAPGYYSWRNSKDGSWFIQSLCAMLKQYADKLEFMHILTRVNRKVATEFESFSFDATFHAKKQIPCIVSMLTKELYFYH
Chain of caspase-1 (P29466 120-297): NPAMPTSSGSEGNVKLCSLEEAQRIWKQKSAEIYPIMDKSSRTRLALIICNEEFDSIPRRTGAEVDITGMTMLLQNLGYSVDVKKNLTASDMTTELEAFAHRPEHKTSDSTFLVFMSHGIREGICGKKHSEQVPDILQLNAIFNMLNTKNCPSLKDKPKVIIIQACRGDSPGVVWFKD
Chain of caspase-1 (P29466 317-404): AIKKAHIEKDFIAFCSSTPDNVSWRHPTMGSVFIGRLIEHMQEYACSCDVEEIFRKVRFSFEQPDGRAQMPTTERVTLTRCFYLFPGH
Chain of caspase-5 (P51878 137-327): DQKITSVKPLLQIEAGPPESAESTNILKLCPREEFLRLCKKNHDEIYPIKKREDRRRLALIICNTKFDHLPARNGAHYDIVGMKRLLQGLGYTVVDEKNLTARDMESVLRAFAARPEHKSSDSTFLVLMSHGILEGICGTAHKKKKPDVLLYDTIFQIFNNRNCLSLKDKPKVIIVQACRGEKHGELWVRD
Chain of caspase-5 (P51878 347-434): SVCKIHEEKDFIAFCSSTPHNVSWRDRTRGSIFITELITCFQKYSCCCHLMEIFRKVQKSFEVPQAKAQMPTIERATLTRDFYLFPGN
Chain of caspase-9 (P55211 1-315): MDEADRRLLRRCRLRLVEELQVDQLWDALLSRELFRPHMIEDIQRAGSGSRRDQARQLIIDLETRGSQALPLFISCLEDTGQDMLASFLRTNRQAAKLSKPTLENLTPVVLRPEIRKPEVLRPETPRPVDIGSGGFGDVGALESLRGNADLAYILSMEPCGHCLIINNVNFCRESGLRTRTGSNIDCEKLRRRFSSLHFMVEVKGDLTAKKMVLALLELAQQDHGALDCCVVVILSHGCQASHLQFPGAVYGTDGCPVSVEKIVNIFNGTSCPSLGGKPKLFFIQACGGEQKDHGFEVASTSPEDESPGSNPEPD
Chain of caspase-9 (P55211 331-416): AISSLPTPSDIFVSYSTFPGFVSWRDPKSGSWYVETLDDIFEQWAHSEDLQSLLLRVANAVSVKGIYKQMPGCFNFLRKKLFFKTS
Chain of caspase-7 (P55210 24-198): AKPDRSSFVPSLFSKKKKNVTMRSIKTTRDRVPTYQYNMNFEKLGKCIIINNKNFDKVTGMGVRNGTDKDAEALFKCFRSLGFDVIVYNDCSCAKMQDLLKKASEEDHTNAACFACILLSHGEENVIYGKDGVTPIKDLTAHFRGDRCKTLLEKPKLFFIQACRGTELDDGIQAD
Chain of caspase-7 (P55210 207-303): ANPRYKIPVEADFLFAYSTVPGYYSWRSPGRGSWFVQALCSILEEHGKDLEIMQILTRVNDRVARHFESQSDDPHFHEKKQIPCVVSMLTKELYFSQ

Row | SMILES | IC50 (caspase-5) [µM] | IC50 (caspase-3) [µM] | activity against caspase-3 (in words) (caspase-3) | inhibition at 50 µM (Hela cells; [3]) [%] | other results
1 | CC(C)(C)OC(=O)C[C@H](N)/C=C/S(=O)(=O)c1ccccc1 [Compound 37, Asp Vinyl phenyl sulfone tosyl salt] |  | > 2 |  |  | 
2 | COC(=O)CC[C@H](NC(=O)[C@H](CC(=O)OC)NC(=O)OCc1ccccc1)C(=O)N[C@H](C(=O)N[C@@H](CC(=O)OC)C(=O)CF)C(C)C [DEVD-fmk, reference compound] |  |  |  | 85 | IC50 (Hela cells; Homo sapiens, staurosporine): 20 µM
3 | CC(C)[C@H](NC(=O)[C@@H](NC(=O)[C@H](CC(=O)OC(C)(C)C)NC(=O)OCc1ccccc1)c1ccccc1)C(=O)O [Compound 16, Z-Asp(β-tert-Butyl)-Phg-Val-OH.] (Cbz-Asp(OtBu)-[Phg]-Val-OH) |  | > 2 | devoid of any activity |  | 
4 | CC(C)[C@H](NC(=O)[C@H](Cc1ccc2ccccc2n1)NC(=O)[C@H](CC(=O)OC(C)(C)C)NC(=O)OCc1ccccc1)C(=O)N[C@H](/C=C/S(=O)(=O)N1CCOCC1)CC(=O)OC(C)(C)C [Compound 66, Z-Asp(β-tert-Butyl)-Ala(2′-quinolyl)-Val-Asp(β-tert-Butyl)morpholine vinyl sulfone] |  |  |  | 25 | 
5 | CC(C)(C)OC(=O)C[C@H](N)/C=C/S(C)(=O)=O.Cc1ccc(S(=O)(=O)O)cc1 (stereo in doubt) [Compound 33, Asp(β-tert-butyl)methyl vinyl sulfone tosyl salt] |  | > 10 | devoid of any activity |  | 
6 | CC(C)(C)OC(=O)C[C@@H](/C=C/S(=O)(=O)c1ccccc1)NC(=O)OC(C)(C)C [Compound 36, Boc-Asp-vinyl phenyl sulfone] |  | > 2 |  |  | 
7 | Cc1ccc(S(=O)(=O)N[C@@H](Cc2ccc3ccccc3n2)C(=O)N[C@H](C(=O)N[C@H](/C=C(\Cl)S(C)(=O)=O)CC(=O)O)C(C)C)cc1 [Compound 50, Ts-Ala(2′quinolyl)-Val-Asp- αchlorovinyl methylsulfone] |  | > 3.33 | The same result was observed |  | IC50 (caspase-1): > 3.33 µM

More lines, main results first:

Row | IC50 (caspase-5) [µM] | IC50 (caspase-3) [µM] | activity against caspase-3 (in words) (caspase-3) | SMILES | inhibition at 50 µM (Hela cells; [3]) [%] | other results
8 | > 3.33 |  |  | CC(C)[C@H](NC(=O)[C@H](Cc1c[nH]c2ccccc12)NC(=O)[C@H](CC(=O)O)NC(=O)OCc1ccccc1)C(=O)N[C@H](/C=C/S(C)(=O)=O)CC(=O)O [Compound 88, Z-Asp-Trp-Val-Aspmethyl vinyl sulfone] | 45 | IC50 (caspase-9; [1]): > 3.33 µM; inhibition at 50 µM (Hela cells; [2]): 50%
9 | > 3.33 |  |  | CC(C)[C@H](NC(=O)[C@@H](NC(=O)[C@H](CC(=O)O)NC(=O)OCc1ccccc1)C1Cc2ccccc2C1)C(=O)N[C@H](/C=C/S(=O)(=O)C(C)C)CC(=O)O [Compound 68, Z-Asp-Indanylglycine-Val-Aspisopropyl vinyl sulfone] | 30 | IC50 (caspase-9; [1]): > 3.33 µM; IC50 (caspase-1): > 3.33 µM; inhibition at 50 µM (Hela cells; [2]): 50%
10 |  | > 10 | devoid of any activity | CS(=O)(=O)/C=C/[C@@H](N)CC(=O)O.Cc1ccc(S(=O)(=O)O)cc1 [Compound 93, Aspmethyl vinyl sulfone tosyl salt] |  | 
11 | > 3.33 |  |  | CC(C)[C@H](NC(=O)[C@H](CCC(=O)O)NC(=O)[C@H](CC(=O)O)NC(=O)OCc1ccccc1)C(=O)N[C@H](/C=C/S(C)(=O)=O)CC(=O)O [Compound 59, Z-Asp-Glu-Val-Aspmethyl vinyl sulfone] | 45 | IC50 (caspase-9): 0.509 µM; IC50 (caspase-7): 0.042 µM; inhibition at 50 µM (Hela cells; [2]): 70%; effectivity in inhibiting PARP cleavage (in words) (Hela cells; relative to DEVD-fmk): showing effectivity
12 | > 3 |  |  | CC(C)[C@H](NC(=O)[C@H](CCC(=O)O)NC(=O)[C@H](Cc1ccc(O)cc1)NC(=O)OCc1ccccc1)C(=O)N[C@H](/C=C/S(C)(=O)=O)CC(=O)O [Compound 82, Z-Tyr-Glu-Val-Aspmethyl vinyl sulfone] |  | IC50 (caspase-7; read-out: Caspase enzymatic activity, IC50 (uM) Caspase 7, 30-minute incubation at 37° C., AFC liberation): > 5 µM
13 | > 3.33 |  |  | CC(C)[C@H](NC(=O)[C@H](Cc1ccccn1)NC(=O)[C@H](CC(=O)O)NC(=O)OCc1ccccc1)C(=O)N[C@H](/C=C/S(=O)(=O)c1ccccc1)CC(=O)O [Compound 85, Z-Asp-Ala(2′-pyridyl)-Val-Aspphenyl vinylsulfone] | 40 | IC50 (caspase-9; [1]): > 3.33 µM; IC50 (caspase-1): > 3.33 µM

— patent publication US10167313B2, “Selective caspase inhibitors and uses thereof” (Genesis Technologies Limited, priority 2008, dated 2019)
